Results: patent US6861395B2, “Method and compositions for inhibiting the growth of microorganisms in metal working fluids” (Arch UK Biocides Limited, priority 2000, dated 2005)

How the values were obtained:
[1] = tested on: Yeast and Fungi (Fusarium solani, Penicillium sp., Acremonium strictum, Geotrichum candidum); test: Microbial resistance test based on ASTM E686-91, fungal contamination in semi synthetic metal working fluid; assay type: cell-based; conditions: for Fungal Contamination after (days) 10: 10 days; for Fungal Contamination after (days) 31: 31 days; for Fungal Contamination after (days) 87: 87 days; for Fungal Contamination after (days) 110: 110 days; for all read-outs here: key: +++ indicates confluent growth; ++ indicates moderate growth; + indicates slight growth; − indicates no growth
Experimental: (§1) The following microbial strains were studied:
(§2) The biocides shown in Tables 4, 5 and 6 were added to the metal working fluid shown in each table and assessed for microbial resistance by a method based on ASTM E686-91: Standard Test Method for Evaluation of Antimicrobial Agents in Aqueous Metal Working Fluids as described below.
(§3) The metal working fluids used in the assessment were the same as those used in Examples 1 to 7.
(§4) Bacteria and fungi were gradually acclimatised to the metal working fluid. The organisms were grown up in biocide free metal working fluid (containing 50% (v/v) minimal broth) with aeration at 25° C. until microbial count reached 10^9 cfu/ml. Every 7 days each micro-organism was subcultured into 90 ml (10 ml inoculum) and re-incubated. Subculturing was done for a minimum of three cycles before use.
(§5) To 1I French square bottles, 900 ml of metal working fluid was added at use concentration (diluted to 5% with water of 125 ppm calcium hardness). 100 ml of inoculum was added and mixed (100 ml of total quantity was removed and discarded). The metal working fluid was allowed to sit undisturbed for 64 hours. The metal working fluid was mixed and sampled for microbiological testing.
(§6) Bacteria and fungi were enumerated by streaking an aliquot onto nutrient or malt agar as appropriate. The mixtures were aerated using capillary tubing to bubble air into the bottom of the bottle (introduced by means of a multi-valve air manifold). Antifoam was also added. After 5 days, the aeration was stopped and volume replaced with sterile distilled water. The mixture was allowed to sit for 64 hours and then mixed. 10 ml of inoculum was used to re-inoculate and all losses were replaced with Biocide containing metal working fluid. The pH of the metal working fluid was measured at start of test and every 7 days. […] Aeration was resumed and the regime repeated for a minimum of 6 weeks or until failure.

[2] = Temperature stability of biocide in semi-synthetic metal working fluid (storage at 50° C., HPLC); conditions: Semi-synthetic metal working fluid Quaker fluid No. 12717
Experimental: The biocides shown in Table 1 were added to Trim C111A (ex. Master Chemical Corporation, USA, a synthetic water miscible cutting and grinding fluid used as coolant and lubricant in metal removal processes). The initial concentration of the biocide in the metal working fluid is shown in the third column of Table 1. The metal working fluid was then stored at 50° C. for 45 days.
The concentration of biocide remaining after storage was measured using reverse phase high performance liquid chromatography (HPLC) after initial sample preparation. In the case of 2-n-butyl-benzisothiazolin-3-one, 2-n-octyl-isothiazolin-3-one and 3-iodo-2-propynyl-N-butylcarbamate sample preparation involved solvent extraction of the active from the metal working fluid. For sodium pyrithione, initial sample preparation was derivatisation to produce a compound readily detectable by HPLC.
The stability of the biocides shown in Tables 2 and 3 in semi-synthetic and soluble oil metal working fluids was assessed using the same method described above in Example 1.

[3] = Temperature stability of biocide in soluble oil metal working fluid (storage at 50° C., HPLC)
[4] = tested on: Yeast and Fungi (Fusarium solani, Penicillium sp., Acremonium strictum, Geotrichum candidum); test: Microbial resistance test based on ASTM E686-91, fungal contamination in synthetic metal working fluid; assay type: cell-based; conditions: for Fungal Contamination after (days) 10: 10 days; for Fungal Contamination after (days) 31: 31 days; for Fungal Contamination after (days) 87: 87 days; for Fungal Contamination after (days) 110: 110 days; for all read-outs here: key: +++ indicates confluent growth; ++ indicates moderate growth; + indicates slight growth; − indicates no growth
Experimental: as §1, §2, §3, §4, §5, §6

[5] = tested on: Fusarium solani (ATCC 58877/IMI 314228); test: MIC by doubling dilution in microtitre plate; assay type: cell-based
Experimental: The fungus Fusarium solani (ATCC 58877/IMI 314228) was grown in malt agar for 7-14 days at 25° C. to give a mycelial mat and the spores harvested from the surface using physiological saline to give a suspension containing about 10^6 fungal spores/ml. This was then diluted with malt broth to give a spore suspension containing 10^4 spores/ml. A 100 μl aliquot of this spore suspension was added to each well of a microtitre plate except for the first well which contained 180 μl.
A 20 μl aliquot of this solution was added to the first well of the microtitre plate and thoroughly mixed. 100 μl was withdrawn from the first well, added to the second well and mixed.

[6] = Temperature stability of biocide in synthetic metal working fluid (storage at 50° C., HPLC); assay type: physicochemical; conditions: Synthetic metal working fluid Trim C111A
Experimental: The biocides shown in Table 1 were added to Trim C111A (ex. Master Chemical Corporation, USA, a synthetic water miscible cutting and grinding fluid used as coolant and lubricant in metal removal processes). […] The metal working fluid was then stored at 50° C. for 45 days.

CCCCNC(=O)OCC#CI [IPBC, 3-iodo-2-propynyl-N-n-butyl carbamate, reference compound]
Fungal Contamination after (days) 10 ([1]; 75 ppm): −
Fungal Contamination after (days) 31 ([1]; 75 ppm): −
Fungal Contamination after (days) 87 ([1]; 75 ppm): −
Fungal Contamination after (days) 110 ([1]; 75 ppm): −
% Remaining after storage at 50° C. for 45 days ([2]; initial concentration 5000 ppm): 0%
% Remaining after storage at 50° C. for 45 days ([3]; initial concentration 5000 ppm): 13%
Fungal Contamination after (days) 10 ([4]; Conc. (a.i.) 75 ppm): −
Fungal Contamination after (days) 31 ([4]; Conc. (a.i.) 75 ppm): −
Fungal Contamination after (days) 87 ([4]; Conc. (a.i.) 75 ppm): −
Fungal Contamination after (days) 110 ([4]; Conc. (a.i.) 75 ppm): −

CCCCn1sc2ccccc2c1=O [BBIT, 2-n-butyl-1,2-benzisothiazolin-3-one]
Fungal Contamination after (days) 10 ([1]; 75 ppm): −
Fungal Contamination after (days) 31 ([1]; 75 ppm): −
Fungal Contamination after (days) 87 ([1]; 75 ppm): +
Fungal Contamination after (days) 110 ([1]; 75 ppm): +
Fungal Contamination after (days) 10 ([1]; 100 ppm): −
Fungal Contamination after (days) 31 ([1]; 100 ppm): −
Fungal Contamination after (days) 87 ([1]; 100 ppm): −
Fungal Contamination after (days) 110 ([1]; 100 ppm): −
Fungal Contamination after (days) 10 ([1]; 150 ppm): −
Fungal Contamination after (days) 31 ([1]; 150 ppm): −
Fungal Contamination after (days) 87 ([1]; 150 ppm): −
Fungal Contamination after (days) 110 ([1]; 150 ppm): −
MIC values ([5]; malt broth, visual inspection after 5 days at 25° C.): 6.4 ppm
Fungal Contamination after (days) 10 ([4]; Conc. (a.i.) 75 ppm): −
Fungal Contamination after (days) 31 ([4]; Conc. (a.i.) 75 ppm): −
Fungal Contamination after (days) 87 ([4]; Conc. (a.i.) 75 ppm): −
Fungal Contamination after (days) 110 ([4]; Conc. (a.i.) 75 ppm): −
Fungal Contamination after (days) 10 ([4]; Conc. (a.i.) 100 ppm): −
Fungal Contamination after (days) 31 ([4]; Conc. (a.i.) 100 ppm): −
Fungal Contamination after (days) 87 ([4]; Conc. (a.i.) 100 ppm): −
Fungal Contamination after (days) 110 ([4]; Conc. (a.i.) 100 ppm): −
Fungal Contamination after (days) 10 ([4]; Conc. (a.i.) 150 ppm): −
Fungal Contamination after (days) 31 ([4]; Conc. (a.i.) 150 ppm): −
Fungal Contamination after (days) 87 ([4]; Conc. (a.i.) 150 ppm): −
Fungal Contamination after (days) 110 ([4]; Conc. (a.i.) 150 ppm): −

[Na].[O-][n+]1ccccc1S [Sodium Omadine, sodium pyridine-2-thiol-1-oxide, reference compound]
Fungal Contamination after (days) 10 ([1]; 150 ppm): −
Fungal Contamination after (days) 31 ([1]; 150 ppm): −
Fungal Contamination after (days) 87 ([1]; 150 ppm): +
Fungal Contamination after (days) 110 ([1]; 150 ppm): +
% Remaining after storage at 50° C. for 45 days ([2]; initial concentration 2500 ppm): 0%
MIC ([5]; ATCC58877, 120 h, read-out: MIC values): 18.5 µg/mL
% Remaining after storage at 50° C. for 45 days ([6]; initial concentration 2500 ppm): 0%
% Remaining after storage at 50° C. for 45 days ([3]; initial concentration 2500 ppm): 0%
Fungal Contamination after (days) 10 ([4]; Conc. (a.i.) 150 ppm): ++
Fungal Contamination after (days) 31 ([4]; Conc. (a.i.) 150 ppm): +++
Fungal Contamination after (days) 87 ([4]; Conc. (a.i.) 150 ppm): +++
Fungal Contamination after (days) 110 ([4]; Conc. (a.i.) 150 ppm): +++

CCCCCCCCn1sccc1=O [OIT, 2-n-octyl-isothiazolin-3-one]
% Remaining after storage at 50° C. for 45 days ([2]; initial concentration 2000 ppm): 0%
% Remaining after storage at 50° C. for 45 days ([6]; initial concentration 2000 ppm): 0%
